Assay [1] addresses T1, Recombinant His-tagged NAMPT (Homo sapiens, UniProt P43490).
T1 construct: His; host or cells: E. coli
Put plainly: Biochemical inhibition assay: NAMPT enzymatic reaction, NMN quantified by mass spectrometry. The following applies: 33 nM NAMPT, 1 μM NAM, 100 μM PRPP, 2.5 mM ATP, 30 minutes at room temperature; read-out: Biochem IC50. How it is done:
Biochemical Inhibition Assay
NAMPT Protein Purification
Recombinant His-tagged NAMPT was produced in E. coli cells, purified over a Ni column, and further purified over a size-exclusion column by XTAL Biostructures.
The NAMPT Enzymatic Reaction
The NAMPT enzymatic reactions were carried out in Buffer A (50 mM Hepes pH 7.5, 50 mM NaCl, 5 mM MgCl2, and 1 mM THP) in 96-well V-bottom plates. The compound titrations were performed in a separate dilution plate by serially diluting the compounds in DMSO to make a 100× stock. […] The compound and enzyme mix was incubated for 15 minutes at room temperature, then 10 μL of 10× substrate and co-factors in Buffer A were added to the test well to make a final concentration of 1 μM NAM, 100 μM 5-Phospho-D-ribose 1-diphosphate (PRPP), and 2.5 mM Adenosine 5′-triphosphate (ATP). The reaction was allowed to proceed for 30 minutes at room temperature, then was quenched with the addition of 11 μL of a solution of formic acid and L-Cystathionine to make a final concentration of 1% formic acid and 10 μM L-Cystathionine. Background and signal strength was determined by addition (or non-addition) of a serial dilution of NMN to a pre-quenched enzyme and cofactor mix.
A mass spectrometry-based assay was used to measure the Nampt reaction product (NMN) and the internal control (L-Cystathionine). NMN and L-Cystathionine were detected using the services of Biocius Lifesciences with the RapidFire system. In short, the NMN and L-Cystathionine are bound to a graphitic carbon cartridge in 0.1% formic acid, eluted in 30% acetonitrile buffer, and injected into a Sciex 4000 mass spectrometer. The components of the sample were ionized with electrospray ionization and the positive ions were detected. […] The fragments are quantified and the analyzed by the following method.
First the NMN signal is normalized to the L-Cystathionine signal by dividing the NMN signal by the L-Cystathionine signal for each well. The signal from the background wells are averaged and subtracted from the test plates.
Wherein x denotes the average signal of the compound treated wells and y denotes the average signal of the DMSO treated wells.
IC50s are Determined Using Excel and this Formula.
Wherein X denotes the compound concentration 1, Y denotes the compound concentration 2, XX denotes the % inhibition at compound concentration 1 (X), and YY denotes the % inhibition at compound concentration 2 (Y).

In a further assay the test system is A2780 cells. Put plainly: In-vitro cell proliferation assay (SRB, 72 hours). It is filed as cell-based. To be noted: Homo sapiens, sulforhodamine B (SRB) assay. How it is done:
In-Vitro Cell Proliferation Assay
After overnight incubation at 37° C. and 5% CO2, the compound titrations were performed in a separate dilution plate by serially diluting the compounds in DMSO to make a 1000× stock. The compounds were then further diluted to 10× final concentration in culture media, whereupon 20 μL of each dilution was added to the plated cells with controls (e.g. DMSO and blank) to make a final volume of 200 μL. The final DMSO concentration in each well was 0.1%. The plates were then incubated for 72 hours at 37° C. in a 5% CO2 incubator. The number of viable cells was then assessed using sulforhodamine B (SRB) assay. Cells were fixed at 4° C. for 1 hour with the addition of 50 μL 30% trichloroacetic acid (TCA) to make a final concentration of 6% TCA. The plates were washed four times with H2O and allowed to dry for at least 1 hour, whereupon 100 μL of a 4% SRB in 1% acetic acid solution was added to each well and incubated at room temperature for at least 30 minutes. The plates were then washed three times with 1% acetic acid, dried, and treated with 100 μL of 10 mM Tris-Base solution. The plates were then read in a microplate reader at an absorbance of 570 nm. Background was generated on a separate plate with media only.
Method for Determining % Inhibition
First, the signals from the background plate are averaged, then the background was subtracted from the test plates.
wherein x denotes the average signal of the compound-treated cells and y denotes the average signal of the DMSO-treated cells.
wherein X denotes the compound concentration 1, Y denotes the compound concentration 2, XX denotes the % inhibition at compound concentration 1 (X), and YY denotes the % inhibition at compound concentration 2 (Y).

T1 sequence (P43490 whole entry): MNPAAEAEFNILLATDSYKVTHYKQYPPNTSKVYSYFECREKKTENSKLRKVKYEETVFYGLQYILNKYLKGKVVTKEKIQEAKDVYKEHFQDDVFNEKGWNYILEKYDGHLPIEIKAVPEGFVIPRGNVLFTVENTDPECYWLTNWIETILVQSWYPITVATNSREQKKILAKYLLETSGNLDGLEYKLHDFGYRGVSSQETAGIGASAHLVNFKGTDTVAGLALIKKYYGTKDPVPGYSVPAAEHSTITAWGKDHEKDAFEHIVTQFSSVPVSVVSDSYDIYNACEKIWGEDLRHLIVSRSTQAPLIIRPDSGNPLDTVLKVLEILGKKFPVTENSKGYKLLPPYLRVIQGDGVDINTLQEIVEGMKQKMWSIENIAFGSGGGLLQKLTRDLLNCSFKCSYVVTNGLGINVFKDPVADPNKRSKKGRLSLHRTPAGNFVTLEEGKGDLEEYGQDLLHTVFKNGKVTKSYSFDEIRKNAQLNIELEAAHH

For the molecule `COCc1ccc(C(=O)N2CCC(CCCCNC(=O)c3ccc4nccn4c3)CC2)nc1` [N-[4-(1-{[5-(methoxymethyl)pyridin-2-yl]carbonyl}piperidin-4-yl)butyl]imidazo[1,2-a]pyridine-6-carboxamide], the half-maximal inhibitory concentration (IC50) in assay [1] is 57.4 nM; in the assay with A2780 cells, 67.1 nM.

In the case of `O=C(NCCCCC1CN(C(=O)c2ccccc2)C1)c1cc2cnccc2[nH]1` [N-[4-(1-benzoylazetidin-3-yl)butyl]-1H-pyrrolo[3,2-c]pyridine-2-carboxamide], in assay [1], the concentration for half-maximal inhibition (IC50) was 23.2 nM. For the molecule `Cc1cnc(C(=O)N2CCC(CCCCNC(=O)c3cc4cnccc4[nH]3)CC2)cn1` [N-(4-{1-[(5-methylpyrazin-2-yl)carbonyl]piperidin-4-yl}butyl)-1H-pyrrolo[3,2-c]pyridine-2-carboxamide], the IC50 is 115 nM in assay [1] and 23.8 nM with A2780 cells. As to `O=C(NCCCCC1CCN(C(=O)c2cc3cc(F)ccc3[nH]2)CC1)c1ccc2nccn2c1` [N-(4-{1-[(5-fluoro-1H-indol-2-yl)carbonyl]piperidin-4-yl}butyl)imidazo[1,2-a]pyridine-6-carboxamide], in assay [1], the IC50 amounted to 71.3 nM. For `Cc1ccc(C(=O)N2CCC(CCCCNC(=O)c3ccc4nccn4c3)CC2)cc1F` [N-(4-{1-[(3-fluoro-4-methylphenyl)carbonyl]piperidin-4-yl}butyl)imidazo[1,2-a]pyridine-6-carboxamide], the IC50 in assay [1] stood at 39.4 nM. `O=C(NCc1ccc(S(=O)(=O)c2ccc(C(=O)N3CCCC3)cc2)cc1)c1cnc2[nH]ncc2c1` [N-{[4-({4-[(pyrrolidin-1-yl)carbonyl]benzene}sulfonyl)phenyl]methyl}-1H-pyrazolo[3,4-b]pyridine-5-carboxamide]: the 50% inhibitory concentration (IC50) in assay [1] was 15.8 nM.

In the assay on A2780 cells, `COc1cccc(C(=O)N2CCC(CCCCNC(=O)c3ccc4nccn4c3)CC2)c1` [N-(4-{1-[(3-methoxyphenyl)carbonyl]piperidin-4-yl}butyl)imidazo[1,2-a]pyridine-6-carboxamide] yielded a 50% inhibitory concentration (IC50) of 6.6 nM. In the case of `O=C(NCCCCC1CCN(C(=O)c2ccccc2Cl)CC1)c1cc2cnccc2[nH]1` [N-(4-{1-[(2-chlorophenyl)carbonyl]piperidin-4-yl}butyl)-1H-pyrrolo[3,2-c]pyridine-2-carboxamide], the 50% inhibitory concentration (IC50) in assay [1] was 15.8 nM. Still for that read-out and setting: with `O=C(NCc1ccc(S(=O)(=O)c2ccc(C(=O)N3CCCC3)cc2)cc1)c1cc2ccncc2s1` [N-{[4-({4-[(pyrrolidin-1-yl)carbonyl]benzene}sulfonyl)phenyl]methyl}thieno[2,3-c]pyridine-2-carboxamide] the figure was 3.7 nM.

Take `O=C(NCCCCC1CCN(C(=O)c2ccccc2Cl)CC1)c1ccc2nccn2c1` [N-(4-{1-[(2-chlorophenyl)carbonyl]piperidin-4-yl}butyl)imidazo[1,2-a]pyridine-6-carboxamide]: the concentration for half-maximal inhibition (IC50) in assay [1] came out at 5 nM. The same measure, in the same setting: under `CC(C)c1ncoc1C(=O)N1CCC(CCCCNC(=O)c2cc3ccncc3s2)CC1` [N-[4-(1-{[4-(propan-2-yl)-1,3-oxazol-5-yl]carbonyl}piperidin-4-yl)butyl]thieno[2,3-c]pyridine-2-carboxamide] stands 7.4 nM. In the case of `O=C(NCCCCC1CCN(C(=O)c2ccc(-n3cccn3)cc2)CC1)c1ccc2nccn2c1` [N-[4-(1-{[4-(1H-pyrazol-1-yl)phenyl]carbonyl}piperidin-4-yl)butyl]imidazo[1,2-a]pyridine-6-carboxamide], in the assay with A2780 cells, the IC50 turned out to be 67.1 nM. For the molecule `COCc1ccc(C(=O)N2CCC(CCCCNC(=O)c3cc4ccncc4s3)CC2)nc1` [N-[4-(1-{[5-(methoxymethyl)pyridin-2-yl]carbonyl}piperidin-4-yl)butyl]thieno[2,3-c]pyridine-2-carboxamide], the IC50 in assay [1] worked out at 18.3 nM. Same read-out and setting: with `O=C(NCCCCC1CCN(C(=O)c2ccc(C(F)(F)F)cn2)CC1)c1ccc2nccn2c1` [N-[4-(1-{[5-(trifluoromethyl)pyridin-2-yl]carbonyl}piperidin-4-yl)butyl]imidazo[1,2-a]pyridine-6-carboxamide] the figure was 82.3 nM. As to `O=C(NCCc1ccc(OCc2ccccc2)cc1)c1cc2cnccc2[nH]1` [N-(4-(benzyloxy)phenethyl)-1H-pyrrolo[3,2-c]pyridine-2-carboxamide], the midpoint of inhibition with A2780 cells, the IC50, lay at 2000 nM. Take `O=C(NCCCCC1CCN(C(=O)c2ccc3nccn3c2)CC1)c1ccc2nccn2c1` [N-{4-[1-({imidazo[1,2-a]pyridin-6-yl}carbonyl)piperidin-4-yl]butyl}imidazo[1,2-a]pyridine-6-carboxamide]: the concentration for half-maximal inhibition (IC50) in assay [1] is 8.5 nM. In the assay on A2780 cells, `COc1ccc(Cl)cc1C(=O)N1CCC(CCCCNC(=O)c2cc3cnccc3[nH]2)CC1` [N-(4-{1-[(5-chloro-2-methoxyphenyl)carbonyl]piperidin-4-yl}butyl)-1H-pyrrolo[3,2-c]pyridine-2-carboxamide] returned an IC50 of 3.3 nM. As to `COc1cc(OC)cc(C(=O)N2CCC(CCCCNC(=O)c3ccc4nccn4c3)CC2)c1` [N-(4-{1-[(3,5-dimethoxyphenyl)carbonyl]piperidin-4-yl}butyl)imidazo[1,2-a]pyridine-6-carboxamide], half-maximal inhibition in the assay with A2780 cells (IC50) was put at 2.8 nM. As for `COc1ccc(F)cc1S(=O)(=O)N1CCC(CCCCNC(=O)c2cc3cnccc3[nH]2)CC1` [N-(4-{1-[(5-fluoro-2-methoxybenzene)sulfonyl]piperidin-4-yl}butyl)-1H-pyrrolo[3,2-c]pyridine-2-carboxamide], the IC50 in assay [1] was 23.2 nM.

For `COc1cccc(C(=O)N2CCC(CCCCNC(=O)c3cc4cnccc4[nH]3)CC2)c1` [N-(4-{1-[(3-methoxyphenyl)carbonyl]piperidin-4-yl}butyl)-1H-pyrrolo[3,2-c]pyridine-2-carboxamide], the IC50 in the assay with A2780 cells stood at 3.8 nM. The molecule `Cc1cccc(C(=O)N2CCC(CCCCNC(=O)c3cc4ccncc4s3)CC2)c1F` [N-(4-{1-[(2-fluoro-3-methylphenyl)carbonyl]piperidin-4-yl}butyl)thieno[2,3-c]pyridine-2-carboxamide] returned an IC50 with A2780 cells of 12.6 nM. In turn, `O=C(NCCCCC1CCN(C(=O)c2cc(F)ccc2F)CC1)c1cc2ccncc2s1` [N-(4-{1-[(2,5-difluorophenyl)carbonyl]piperidin-4-yl}butyl)thieno[2,3-c]pyridine-2-carboxamide] showed a half-maximal inhibitory concentration (IC50) in the assay with A2780 cells of 1.6 nM. For `Cc1oncc1S(=O)(=O)N1CCC(CCCCNC(=O)c2cc3cnccc3[nH]2)CC1` [N-{4-[1-(5-methyl-1,2-oxazole-4-sulfonyl)piperidin-4-yl]butyl}-1H-pyrrolo[3,2-c]pyridine-2-carboxamide], the IC50 in assay [1] turned out to be 36.7 nM. The same measure, in the same setting: with `O=C(NCCCCC1CCN(C(=O)c2csc(-c3ccccc3)n2)CC1)c1ccc2nccn2c1` [N-(4-{1-[(2-phenyl-1,3-thiazol-4-yl)carbonyl]piperidin-4-yl}butyl)imidazo[1,2-a]pyridine-6-carboxamide] the figure was 52.3 nM; with `O=C(NCCCCC1CCN(C(=O)c2cc(F)ccc2F)CC1)c1cc2cnccc2[nH]1` [N-(4-{1-[(2,5-difluorophenyl)carbonyl]piperidin-4-yl}butyl)-1H-pyrrolo[3,2-c]pyridine-2-carboxamide], 10.3 nM. In the assay with A2780 cells, `O=C(NCCCCC1CCN(C(=O)c2cccc(Cl)c2)CC1)c1cc2cnccc2[nH]1` [N-(4-{1-[(3-chlorophenyl)carbonyl]piperidin-4-yl}butyl)-1H-pyrrolo[3,2-c]pyridine-2-carboxamide] showed a 50% inhibitory concentration (IC50) of 11.9 nM. The same measure, in the same setting: under `O=C(NCCCCC1CCN(C(=O)c2ccc(F)cc2)CC1)c1cc2cnccc2[nH]1` [N-(4-{1-[(4-fluorophenyl)carbonyl]piperidin-4-yl}butyl)-1H-pyrrolo[3,2-c]pyridine-2-carboxamide] stands 14.7 nM.

Values taken from patent US9555039B2, “Piperidine derivatives and compositions for the inhibition of nicotinamide phosphoribosyltransferase (NAMPT)” (Forma TM, LLC., priority 2011, dated 2017).
